From US20250154152A1, “INHIBITORS OF NAEGLERIA FOWLERI” (Wisconsin Alumni Research Foundation, priority 2023, published 2025) come the findings set out here.

Usually EC50 stands for the midpoint of the concentration-response curve.

Structures are written as SMILES.

One test concerns N. fowleri strain Nf69 (ATCC 30215) trophozoites. Kind of test: Determination of EC50 values against Naegleria fowleri (growth inhibition, CellTiter Glo, 48 h). The test is classed as cell-based. Conditions: ATCC30215, N. fowleri Nf69 trophozoites, 48 h culture, 37° C., CellTiter Glo luminescence, read-out: EC50 uM against N. fowleri. The procedure: N. fowleri strain Nf69 (ATCC 30215) trophozoites were cultured axenically. Amoeba were seeded at […] in 100 μL of the indicated medium in white TC-treated 96-well plates (Thermo Scientific Nunc Microwell 136101). Cells were seeded into Nelson's Complete Media (NCM, 0.17% liver infusion broth (BD Difco, Franklin Lakes, NJ), 0.17% glucose, 0.012% sodium chloride, 0.0136% potassium phosphate monobasic, 0.0142% sodium phosphate dibasic, 0.0004% calcium chloride, 0.0002% magnesium sulfate, 10% heat-inactivated fetal bovine serum (FBS), 1% penicillin-streptomycin) at 37° C. in 96-well tissue culture plates. Vehicle or compound at concentrations initially ranging from 20 to 0.375 μM were added to cells, followed by culture for 48 h (37° C., 5% CO2). Plates were equilibrated to rt for 15 min and CellTiter Glo reagent was added followed by orbital shaking for 2 min. After an additional incubation (rt, 10 min), luminescence was scored on a BioTek Synergy H1 microplate reader. Luminescence values were used to calculate percent cell growth inhibition (based on controls) for each concentration of compound tested. Averages of triplicates were calculated and fit to dose-response curves for the determination of EC50 values, using Prism 9.0 (GraphPad Software, San Diego, CA). […] Other controls included media alone, cells and media, and vehicle and media. For very potent compounds, concentration of reagent in the dose-response assays were reduced to provide an appropriate range for EC50 value resolution.
Compounds of the present technology were tested for growth inhibition of N. fowleri per General Procedure 13, above.
For orientation: In ATP-based viability assays light output follows the ATP content of the culture.
Take `COc1cc2nc3n(c(=O)c2cc1Cl)CC[C@@H]1[C@@H]3CCCN1CCN1CCCC1` (racemic) [trans-7nn, (±)-(4aR,13bS)-10-chloro-11-methoxy-4-(2-(pyrrolidin-1-yl)ethyl)-1,2,3,4,4a,5,6,13b-octahydro-8H-[1,6]naphthyridino[5,6-b]quinazolin-8-one]: the EC50 lay in the range of 0.1 to 1 µM.

Take `COc1cc2nc3n(c(=O)c2cc1Cl)CC[C@@H]1[C@@H]3CCCN1CC1CC1` (racemic) [trans-7gg, (±)-(4aR,13bS)-10-chloro-4-(cyclopropylmethyl)-11-methoxy-1,2,3,4,4a,5,6,13b-octahydro-8H-[1,6]naphthyridino[5,6-b]quinazolin-8-one]: the EC50 lay in the range of 0.0001 to 0.1 µM.

With `CN1CC[C@H]2c3nc4cc(F)c(F)cc4c(=O)n3CC[C@H]21` (racemic) [cis-5ee, (±)-(3aR,12bR)-9,10-difluoro-3-methyl-2,3,3a,4,5,12b-hexahydropyrrolo[3′,2′:3,4]pyrido[2,1-b]quinazolin-7(1H)-one], the concentration giving a half-maximal response (EC50) is more than 10 µM.

As for `COc1cc(CN2CCC[C@@H]3c4nc5cc(Cl)c(Cl)cc5c(=O)n4CC[C@H]32)cc(OC)c1` (racemic) [trans-7n, (±)-(4aR,13bS)-10,11-dichloro-4-(3,5-dimethoxybenzyl)-1,2,3,4,4a,5,6,13b-octahydro-8H-[1,6]naphthyridino[5,6-b]quinazolin-8-one], the EC50 lay in the range of 0.0001 to 0.1 µM.

In the case of `Cn1c([C@H]2CCCN(CC3COC3)C2)nc2cc(Cl)c(Cl)cc2c1=O` [Compound S-14e, (S)-6,7-dichloro-3-methyl-2-(1-(oxetan-3-ylmethyl)piperidin-3-yl)quinazolin-4(3H)-one], the EC50 was more than 10 µM.

Consider `CN1CCC[C@H]2c3nc4cc(Cl)c(Cl)cc4c(=O)n3CC[C@H]21` (racemic) [cis-5q, (±)-(4aR,13bR)-10,11-dichloro-4-methyl-1,2,3,4,4a,5,6,13b-octahydro-8H-[1,6]naphthyridino[5,6-b]quinazolin-8-one], for which the concentration for a half-maximal effect (EC50) lay in the range of 0.1 to 1 µM.

With `O=c1c2ccccc2nc2n1CC[C@@H]1[C@@H]2CCCN1Cc1ccccc1` (racemic) [trans-5aa, (±)-(4aR,13bS)-4-benzyl-1,2,3,4,4a,5,6,13b-octahydro-8H-[1,6]naphthyridino[5,6-b]quinazolin-8-one], the 50% effective concentration (EC50) is more than 10 µM.

Take `CN1CCC[C@@H]2c3nc4ccccc4c(=O)n3CC[C@H]21` (racemic) [trans-5a, (±)-(4aR,13bS)-4-methyl-1,2,3,4,4a,5,6,13b-octahydro-8H-[1,6]naphthyridino[5,6-b]quinazolin-8-one]: the EC50 was more than 10 µM.

Consider `CN1CCC[C@H]2c3nc4ccc(C(F)(F)F)cc4c(=O)n3CC[C@H]21` (racemic) [cis-5j, (±)-(4aR,13bR)-4-methyl-10-(trifluoromethyl)-1,2,3,4,4a,5,6,13b-octahydro-8H-[1,6]naphthyridino[5,6-b]quinazolin-8-one], for which the 50% effective concentration (EC50) lay within 0.1 to 1 µM.

In the case of `CN1CCO[C@@H]2c3nc4ccccc4c(=O)n3CC[C@H]21` (racemic) [trans-5v, (±)-(4aR,13bS)-4-methyl-3,4,4a,5,6,13b-hexahydro-[1,4]oxazino[2′,3′:3,4]pyrido[2,1-b]quinazolin-8(2H)-one], the concentration giving a half-maximal response (EC50) was more than 10 µM.

`CN1CCN(C)[C@H]2c3nc4ccccc4c(=O)n3CC[C@H]21` (racemic) [cis-5y, (±)-(4aR,13bR)-1,4-dimethyl-1,2,3,4,4a,5,6,13b-octahydro-8H-pyrazino[2′,3′:3,4]pyrido[2,1-b]quinazolin-8-one]: the EC50 is more than 10 µM.

On to `Cn1c([C@@H]2CCCN(CC3COC3)C2)nc2ccc(F)cc2c1=O` [Compound R-14q, (R)-6-fluoro-3-methyl-2-(1-(oxetan-3-ylmethyl)piperidin-3-yl)quinazolin-4(3H)-one], for which the half-maximal effective concentration (EC50) was more than 10 µM.

`Cn1c([C@H]2CCCN(CCO)C2)nc2cc(Cl)c(Cl)cc2c1=O` [Compound S-14y, (S)-6,7-dichloro-2-(1-(2-hydroxyethyl)piperidin-3-yl)-3-methylquinazolin-4(3H)-one]: the EC50 is more than 10 µM.

As for `CN1CCO[C@H]2c3nc4ccccc4c(=O)n3CC[C@H]21` (racemic) [cis-5v, (±)-(4aR,13bR)-4-methyl-3,4,4a,5,6,13b-hexahydro-[1,4]oxazino[2′,3′:3,4]pyrido[2,1-b]quinazolin-8(2H)-one], the EC50 was more than 10 µM.

In the case of `Cn1c([C@H]2CCCN(CCN3CCCC3)C2)nc2cc(Cl)c(Cl)cc2c1=O` [Compound S-14cc, (S)-6,7-dichloro-3-methyl-2-(1-(2-(pyrrolidin-1-yl)ethyl)piperidin-3-yl)quinazolin-4(3H)-one], the EC50 was more than 10 µM.

Consider `CCN1CCC[C@@H]2c3nc4ccccc4c(=O)n3CC[C@H]21` (racemic) [trans-5z, (±)-(4aR,13bS)-4-ethyl-1,2,3,4,4a,5,6,13b-octahydro-8H-[1,6]naphthyridino[5,6-b]quinazolin-8-one], for which the EC50 was more than 10 µM.

Take `CC(C)N1CCC[C@@H](c2nc3cc(Cl)c(Cl)cc3c(=O)n2C)C1` [Compound R-14b, (R)-6,7-dichloro-2-(1-isopropylpiperidin-3-yl)-3-methylquinazolin-4(3H)-one]: the concentration for a half-maximal effect (EC50) is more than 10 µM.

Consider `CN1CCC[C@H]2c3nc4ccc(Cl)cc4c(=O)n3CC[C@H]21` (racemic) [cis-5d, (±)-(4aR,13bR)-10-chloro-4-methyl-1,2,3,4,4a,5,6,13b-octahydro-8H-[1,6]naphthyridino[5,6-b]quinazolin-8-one], for which the EC50 lay within 1 to 10 µM.

Take `CN1CCC[C@@H]2c3nc4cc(Cl)c(Cl)cc4c(=O)n3CC[C@H]21` [trans-10e-ent-1, (4aR,13bS)-10,11-dichloro-4-methyl-1,2,3,4,4a,5,6,13b-octahydro-8H-[1,6]naphthyridino[5,6-b]quinazolin-8-one]: the concentration giving a half-maximal response (EC50) was 0.0001 to 0.1 µM.

Consider `O=C(c1ccccc1)N1CCC[C@@H]2c3nc4cc(Cl)c(Cl)cc4c(=O)n3CC[C@H]21` (racemic) [trans-7h, (±)-(4aR,13bS)-4-benzoyl-10,11-dichloro-1,2,3,4,4a,5,6,13b-octahydro-8H-[1,6]naphthyridino[5,6-b]quinazolin-8-one], for which the EC50 was more than 10 µM.

On to `CN1CCC[C@@H]2c3nc4cc(C(F)(F)F)ccc4c(=O)n3CC[C@H]21` (racemic) [trans-5n, (±)-(4aR,13bS)-4-methyl-11-(trifluoromethyl)-1,2,3,4,4a,5,6,13b-octahydro-8H-[1,6]naphthyridino[5,6-b]quinazolin-8-one], for which the EC50 fell in the range of 0.1 to 1 µM.

For `Cn1c([C@@H]2CCCN(Cc3ccccn3)C2)nc2cc(Cl)c(Cl)cc2c1=O` [Compound R-14w, (R)-6,7-dichloro-3-methyl-2-(1-(pyridin-2-ylmethyl)piperidin-3-yl)quinazolin-4(3H)-one], the 50% effective concentration (EC50) is more than 10 µM.

For the compound `CC(C)(C)C(=O)N1CCC[C@@H]2c3nc4cc(Cl)c(Cl)cc4c(=O)n3CC[C@H]21` (racemic) [trans-7d, (±)-(4aR,13bS)-10,11-dichloro-4-pivaloyl-1,2,3,4,4a,5,6,13b-octahydro-8H-[1,6]naphthyridino[5,6-b]quinazolin-8-one], the EC50 is more than 10 µM.

In the case of `Cn1c([C@@H]2CCCN(CC3COC3)C2)nc2ccc(Cl)cc2c1=O` [Compound R-14p, (R)-6-chloro-3-methyl-2-(1-(oxetan-3-ylmethyl)piperidin-3-yl)quinazolin-4(3H)-one], the EC50 was more than 10 µM.

As to `COc1cc2nc3n(c(=O)c2cc1Cl)CC[C@@H]1[C@@H]3CCCN1CC1COC1` (single isomer, unassigned) [trans-10i-ent-1], the EC50 lay within 0.1 to 1 µM.

Turning to `CN1CCC[C@H]2c3nc4cccc(Cl)c4c(=O)n3CC[C@H]21` (racemic) [cis-5c, (±)-(4aR,13bR)-9-chloro-4-methyl-1,2,3,4,4a,5,6,13b-octahydro-8H-[1,6]naphthyridino[5,6-b]quinazolin-8-one], the EC50 is more than 10 µM.

Take `CN1CCC[C@H]2c3nc4cc(F)ccc4c(=O)n3CC[C@H]21` (racemic) [cis-5m, (±)-(4aR,13bR)-11-fluoro-4-methyl-1,2,3,4,4a,5,6,13b-octahydro-8H-[1,6]naphthyridino[5,6-b]quinazolin-8-one]: the 50% effective concentration (EC50) is more than 10 µM.

Consider `CN1CCC[C@@H]2c3nc4ccc(Br)cc4c(=O)n3CC[C@H]21` (racemic) [trans-5e, (±)-(4aR,13bS)-10-bromo-4-methyl-1,2,3,4,4a,5,6,13b-octahydro-8H-[1,6]naphthyridino[5,6-b]quinazolin-8-one], for which the EC50 lay within 1 to 10 µM.

With `COc1ccc2c(=O)n3c(nc2c1)[C@H]1CCCN(C)[C@@H]1CC3` (racemic) [trans-50, (±)-(4aR,13bS)-11-methoxy-4-methyl-1,2,3,4,4a,5,6,13b-octahydro-8H-[1,6]naphthyridino[5,6-b]quinazolin-8-one], the EC50 was in the range of 1 to 10 µM.

With `COc1cc2nc3n(c(=O)c2cc1C#N)CC[C@@H]1[C@@H]3CCCN1C` (racemic) [trans-7jj, (±)-(4aR,13bS)-11-methoxy-4-methyl-8-oxo-2,3,4,4a,5,6,8,13b-octahydro-1H-[1,6]naphthyridino[5,6-b]quinazoline-10-carbonitrile], the EC50 was 1 to 10 µM.

The same test, now with this note: ATCC30215, positive control, N. fowleri Nf69 trophozoites, 48 h, CellTiter Glo, read-out: N. fowleri EC50.
`CCCCCCCCCCCCCCCCOP(=O)([O-])OCC[N+](C)(C)C` [Miltefosine, miltefosine, reference compound]: the EC50 was determined as 35.7 ± 9.1 µM.
